Test system: MV-4-11 cells
Test: Gene expression microarray analysis (Affymetrix PrimeView) and GSEA
Format: cell-based, human
Design: RFU PODN (11730768_x_at) / Fold change /veh PODN (11730768_x_at) / RFU LINC00158 (11744669_a_at) / Fold change /veh LINC00158 (11744669_a_at) / RFU DUSP10 (11751237_a_at) / Fold change /veh DUSP10 (11751237_a_at) / RFU ID3 (11757404_x_at) / Fold change /veh ID3 (11757404_x_at) / RFU PLEKHG5 (11737974_s_at) / Fold change /veh PLEKHG5 (11737974_s_at) / RFU LRRC4B (11730491_at) / Fold change /veh LRRC4B (11730491_at) / RFU GIMAP4 (11747438_a_at) / Fold change /veh GIMAP4 (11747438_a_at) / RFU KRT8 (11758183_x_at) / Fold change /veh KRT8 (11758183_x_at) / RFU CNN1 (11734310_a_at) / Fold change /veh CNN1 (11734310_a_at) / RFU VPS37D (11726825_at) / Fold change /veh VPS37D (11726825_at) / RFU C10orf10 (11716522_x_at) / Fold change /veh C10orf10 (11716522_x_at) / RFU KIR2DL2 /// KIR2DL4 /// KIR2DL5A /// KIR2DL5B /// KIR2DS1 /// KIR2DS2 /// KIR2DS3 /// KIR2DS4 /// KIR3DL3 /// KIR3DL3 /// KIR3DS1 (11738374_at) / Fold change /veh KIR2DL2 /// KIR2DL4 /// KIR2DL5A /// KIR2DL5B /// KIR2DS1 /// KIR2DS2 /// KIR2DS3 /// KIR2DS4 /// KIR3DL3 /// KIR3DL3 /// KIR3DS1 (11738374_at) / RFU C1QL1 (11718748_at) / Fold change /veh C1QL1 (11718748_at) / RFU TMPRSS4 (11747572_a_at) / Fold change /veh TMPRSS4 (11747572_a_at) / RFU HAMP (11756126_x_at) / Fold change /veh HAMP (11756126_x_at) / RFU RNFT2 (11725882_a_at) / Fold change /veh RNFT2 (11725882_a_at) / RFU NR4A2 (11747474_a_at) / Fold change /veh NR4A2 (11747474_a_at) / RFU ABCC12 (11746883_a_at) / Fold change /veh ABCC12 (11746883_a_at) / RFU TMEM136 (11760407_x_at) / Fold change /veh TMEM136 (11760407_x_at) / RFU CLDN22 /// WWC2 (11732394_at) / Fold change /veh CLDN22 /// WWC2 (11732394_at) / RFU HLA-DPB1 (11760878_x_at) / Fold change /veh HLA-DPB1 (11760878_x_at) / RFU SPINT1 (11716480_a_at) / Fold change /veh SPINT1 (11716480_a_at) / RFU GAP43 (11754022_s_at) / Fold change /veh GAP43 (11754022_s_at) / RFU A4GNT (11735810_at) / Fold change /veh A4GNT (11735810_at) / RFU PRB3 (11715151_x_at) / Fold change /veh PRB3 (11715151_x_at) / RFU TUBB4B (11761932_at) / Fold change /veh TUBB4B (11761932_at) / RFU CAPN14 (11732068_a_at) / Fold change /veh CAPN14 (11732068_a_at) / RFU TMCC2 (11721928_a_at) / Fold change /veh TMCC2 (11721928_a_at) / RFU IRGQ (11745062_a_at) / Fold change /veh IRGQ (11745062_a_at) / RFU FAM174B (11720279_a_at) / Fold change /veh FAM174B (11720279_a_at) / RFU TMPRSS4 (11748680_a_at) / Fold change /veh TMPRSS4 (11748680_a_at) / RFU FAM212B (11763350_a_at) / Fold change /veh FAM212B (11763350_a_at) / RFU PLEKHG5 (11743358_a_at) / Fold change /veh PLEKHG5 (11743358_a_at) / RFU ZSCAN30 (11745921_a_at) / Fold change /veh ZSCAN30 (11745921_a_at) / RFU CMKLR1 (11741424_a_at) / Fold change /veh CMKLR1 (11741424_a_at) / RFU LOC101060620 /// MAPK8IP1 (11723275_at) / Fold change /veh LOC101060620 /// MAPK8IP1 (11723275_at) / RFU SPTSSB (11747773_x_at) / Fold change /veh SPTSSB (11747773_x_at) / RFU PRSS12 (11739890_at) / Fold change /veh PRSS12 (11739890_at) / RFU BIN1 (11741810_x_at) / Fold change /veh BIN1 (11741810_x_at) / RFU WNT11 (11732464_a_at) / Fold change /veh WNT11 (11732464_a_at) / RFU C10orf10 (11716521_a_at) / Fold change /veh C10orf10 (11716521_a_at) / RFU C5orf56 (11738089_at) / Fold change /veh C5orf56 (11738089_at) / RFU CYB561 (11721691_x_at) / Fold change /veh CYB561 (11721691_x_at) / RFU ANKRD19P (11752326_a_at) / Fold change /veh ANKRD19P (11752326_a_at) / RFU OR2T12 /// OR2T33 /// OR2T8 (11738714_s_at) / Fold change /veh OR2T12 /// OR2T33 /// OR2T8 (11738714_s_at) / RFU VCAN (11748164_a_at) / Fold change /veh VCAN (11748164_a_at) / RFU JSRP1 (11732532_at) / Fold change /veh JSRP1 (11732532_at) / RFU KRTAP10-11 (11738290_x_at) / Fold change /veh KRTAP10-11 (11738290_x_at) / RFU MYO3A (11730013_a_at) / Fold change /veh MYO3A (11730013_a_at) / RFU EBF3 (11725865_a_at) / Fold change /veh EBF3 (11725865_a_at) / RFU CAMK2N1 (11719241_x_at) / Fold change /veh CAMK2N1 (11719241_x_at) / RFU C5orf56 (11738088_a_at) / Fold change /veh C5orf56 (11738088_a_at) / RFU OLFML3 (11715873_a_at) / Fold change /veh OLFML3 (11715873_a_at) / RFU LOC100653217 /// NTM (11731650_a_at) / Fold change /veh LOC100653217 /// NTM (11731650_a_at) / RFU MAPK11 (11762145_a_at) / Fold change /veh MAPK11 (11762145_a_at) / RFU FIZ1 (11724087_x_at) / Fold change /veh FIZ1 (11724087_x_at) / RFU OASL (11726364_x_at) / Fold change /veh OASL (11726364_x_at) / RFU SOX15 (11748057_x_at) / Fold change /veh SOX15 (11748057_x_at) / RFU CD79A (11719716_a_at) / Fold change /veh CD79A (11719716_a_at) / RFU HIST1H1D (11736915_at) / Fold change /veh HIST1H1D (11736915_at) / RFU CASKIN2 (11723855_a_at) / Fold change /veh CASKIN2 (11723855_a_at) / RFU LOC730098 (11760151_x_at) / Fold change /veh LOC730098 (11760151_x_at) / RFU OR4N2 (11742367_at) / Fold change /veh OR4N2 (11742367_at) / RFU PRRT2 (11749266_a_at) / Fold change /veh PRRT2 (11749266_a_at) / RFU SNX32 (11753110_a_at) / Fold change /veh SNX32 (11753110_a_at) / RFU CDHR5 (11726645_a_at) / Fold change /veh CDHR5 (11726645_a_at) / RFU RCAN1 (11760418_a_at) / Fold change /veh RCAN1 (11760418_a_at) / RFU FAM167A (11723789_a_at) / Fold change /veh FAM167A (11723789_a_at) / RFU FAM26E (11764081_at) / Fold change /veh FAM26E (11764081_at) / RFU ISYNA1 (11749810_s_at) / Fold change /veh ISYNA1 (11749810_s_at) / RFU ACY1 (11761880_at) / Fold change /veh ACY1 (11761880_at) / RFU 11764098_at / Fold change /veh 11764098_at / RFU SAMD14 (11745864_x_at) / Fold change /veh SAMD14 (11745864_x_at) / RFU NPB (11741838_a_at) / Fold change /veh NPB (11741838_a_at) / RFU TMPRSS6 (11731388_a_at) / Fold change /veh TMPRSS6 (11731388_a_at) / RFU KRTAP10-2 (11738614_at) / Fold change /veh KRTAP10-2 (11738614_at) / RFU ARHGAP8 /// PRR5-ARHGAP8 (11727945_x_at) / Fold change /veh ARHGAP8 /// PRR5-ARHGAP8 (11727945_x_at) / RFU KRTAP5-7 /// NADSYN1 (11734609_at) / Fold change /veh KRTAP5-7 /// NADSYN1 (11734609_at) / RFU RASL12 (11751679_a_at) / Fold change /veh RASL12 (11751679_a_at) / RFU CDKN2B (11736163_a_at) / Fold change /veh CDKN2B (11736163_a_at) / RFU PRF1 (11729649_at) / Fold change /veh PRF1 (11729649_at) / RFU, ZNF638 /// ZNF638-IT1 / Fold change vs veh, ZNF638 /// ZNF638-IT1 / RFU, PANK3 / Fold change vs veh, PANK3 / RFU, SH3YL1 / Fold change vs veh, SH3YL1 / RFU, ZEB2 / Fold change vs veh, ZEB2 / RFU, NRIP1 / Fold change vs veh, NRIP1 / RFU, PTTG1IP / Fold change vs veh, PTTG1IP / RFU, CAPN2 / Fold change vs veh, CAPN2 / RFU, MED14 / Fold change vs veh, MED14 / RFU, SNORA58 / Fold change vs veh, SNORA58 / RFU, C1orf63 / Fold change vs veh, C1orf63 / RFU, LRRFIP1 / Fold change vs veh, LRRFIP1 / RFU, NDUFAF7 / Fold change vs veh, NDUFAF7 / RFU, SLC12A2 / Fold change vs veh, SLC12A2 / RFU, IBTK / Fold change vs veh, IBTK / RFU, ESF1 / Fold change vs veh, ESF1 / Fold change vs veh, TMEM50B / RFU, TAOK1 / Fold change vs veh, TAOK1 / RFU, ACBD3 / Fold change vs veh, ACBD3 / RFU, TMA16 / Fold change vs veh, TMA16 / RFU, RWDD3 / Fold change vs veh, RWDD3 / RFU, BCAT1 / Fold change vs veh, BCAT1 / RFU, EDEM3 / Fold change vs veh, EDEM3 / RFU, TMEM33 / Fold change vs veh, TMEM33 / RFU, WDR75 / Fold change vs veh, WDR75 / RFU, AHCTF1 / Fold change vs veh, AHCTF1 / RFU, TFRC / Fold change vs veh, TFRC / RFU, ZDHHC17 / Fold change vs veh, ZDHHC17 / RFU, NOM1 / Fold change vs veh, NOM1 / RFU, ARL8B / Fold change vs veh, ARL8B / RFU, ZBTB11 / Fold change vs veh, ZBTB11 / RFU, TAMM41 / Fold change vs veh, TAMM41 / RFU, KIAA1704 /// LOC100996395 / Fold change vs veh, KIAA1704 /// LOC100996395 / RFU, ING1 / Fold change vs veh, ING1 / RFU, TRMT61B / Fold change vs veh, TRMT61B / RFU, FUBP3 / Fold change vs veh, FUBP3 / RFU, TP53 / Fold change vs veh, TP53 / RFU, TNKS2 / Fold change vs veh, TNKS2 / RFU, ZFP14 / Fold change vs veh, ZFP14 / RFU, ACTR2 / Fold change vs veh, ACTR2 / RFU, PPP3R1 / Fold change vs veh, PPP3R1 / RFU, PIK3R1 / Fold change vs veh, PIK3R1 / RFU, HNRNPA1 / Fold change vs veh, HNRNPA1 / RFU, RNF170 / Fold change vs veh, RNF170 / RFU, ZNF28 / Fold change vs veh, ZNF28 / RFU, RNGTT / Fold change vs veh, RNGTT / RFU, OGT / Fold change vs veh, OGT / RFU, BRD1 / Fold change vs veh, BRD1 / RFU, MARS / Fold change vs veh, MARS / RFU, ZNF655 / Fold change vs veh, ZNF655 / RFU, FAHD1 / Fold change vs veh, FAHD1 / RFU, BDP1 / Fold change vs veh, BDP1 / RFU, LRRCC1 / Fold change vs veh, LRRCC1 / RFU, ARID1A / Fold change vs veh, ARID1A / RFU, ZNF146 / Fold change vs veh, ZNF146 / RFU, ZNF330 / Fold change vs veh, ZNF330 / RFU, GPN3 / Fold change vs veh, GPN3 / RFU, C9orf123 / Fold change vs veh, C9orf123 / RFU, N4BP2L2 / Fold change vs veh, N4BP2L2 / RFU, ARFIP1 / Fold change vs veh, ARFIP1 / RFU, FAM179B / Fold change vs veh, FAM179B / RFU, BCL10 / Fold change vs veh, BCL10 / RFU, UHRF1BP1L / Fold change vs veh, UHRF1BP1L / RFU, BET1 / Fold change vs veh, BET1 / RFU, CNOT2 / Fold change vs veh, CNOT2 / RFU, ZNF268 / Fold change vs veh, ZNF268 / Fold change vs veh, ZNF507 / RFU, DGCR2 / Fold change vs veh, DGCR2 / RFU, WDSUB1 / Fold change vs veh, WDSUB1 / Fold change vs veh, HSP90B1 /// MIR3652 / RFU, ADSS / Fold change vs veh, ADSS / RFU, GK / Fold change vs veh, GK / RFU, ZNF148 / Fold change vs veh, ZNF148 / RFU, TAF9 / Fold change vs veh, TAF9 / RFU, SLC1A5 / Fold change vs veh, SLC1A5 / RFU, SLMO2 / Fold change vs veh, SLMO2 / RFU, ABCC4 / Fold change vs veh, ABCC4 / RFU, LOC101060439 /// RAP1B / Fold change vs veh, LOC101060439 /// RAP1B / RFU, RFX7 / Fold change vs veh, RFX7 / RFU, GTPBP10 / Fold change vs veh, GTPBP10 / RFU, CNEP1R1 / Fold change vs veh, CNEP1R1 / RFU, BIVM-ERCC5 /// ERCC5 / Fold change vs veh, BIVM-ERCC5 /// ERCC5 / RFU, ILF3 / Fold change vs veh, ILF3 / RFU 11762660_at / Fold change /veh 11762660_at / RFU VCAN (11757783_s_at) / Fold change /veh VCAN (11757783_s_at) / RFU DDX43 (11728927_at) / Fold change /veh DDX43 (11728927_at) / RFU KRT8 (11758188_x_at) / Fold change /veh KRT8 (11758188_x_at) / RFU NKD1 (11759106_at) / Fold change /veh NKD1 (11759106_at) / RFU SRD5A1 (11742802_a_at) / Fold change /veh SRD5A1 (11742802_a_at) / RFU TPSAB1 /// TPSB2 (11721975_s_at) / Fold change /veh TPSAB1 /// TPSB2 (11721975_s_at) / RFU GSTM3 (11746129_a_at) / Fold change /veh GSTM3 (11746129_a_at) / RFU IL23R (11737362_x_at) / Fold change /veh IL23R (11737362_x_at) / RFU TMEM51 (11727254_a_at) / Fold change /veh TMEM51 (11727254_a_at) / RFU PIWIL2 (11732686_x_at) / Fold change /veh PIWIL2 (11732686_x_at) / RFU ORM1 (11744905_x_at) / Fold change /veh ORM1 (11744905_x_at) / RFU CCDC152 (11743942_at) / Fold change /veh CCDC152 (11743942_at) / RFU ECM1 (11717891_a_at) / Fold change /veh ECM1 (11717891_a_at) / RFU IL23R (11748794_a_at) / Fold change /veh IL23R (11748794_a_at) / RFU TNFAIP8L3 (11732012_x_at) / Fold change /veh TNFAIP8L3 (11732012_x_at) / RFU MBOAT4 (11741988_at) / Fold change /veh MBOAT4 (11741988_at) / RFU 11764193_at / Fold change /veh 11764193_at / RFU TMEM53 (11763286_at) / Fold change /veh TMEM53 (11763286_at) / RFU MAGEB2 (11727129_at) / Fold change /veh MAGEB2 (11727129_at) / RFU TMEM200A (11744735_a_at) / Fold change /veh TMEM200A (11744735_a_at) / RFU CCDC152 (11751479_a_at) / Fold change /veh CCDC152 (11751479_a_at) / RFU FAM211A (11726209_a_at) / Fold change /veh FAM211A (11726209_a_at) / RFU RGS16 (11746705_a_at) / Fold change /veh RGS16 (11746705_a_at) / RFU VCAN (11755009_s_at) / Fold change /veh VCAN (11755009_s_at) / RFU RHOB (11743442_s_at) / Fold change /veh RHOB (11743442_s_at) / RFU RGS16 (11720943_a_at) / Fold change /veh RGS16 (11720943_a_at) / RFU RGS16 (11720944_at) / Fold change /veh RGS16 (11720944_at) / RFU, VPS4B / Fold change vs veh, VPS4B / RFU, CREB1 / Fold change vs veh, CREB1 / RFU, DNAJC13 / Fold change vs veh, DNAJC13 / RFU, GNAQ / Fold change vs veh, GNAQ / RFU, CDK5R1 / Fold change vs veh, CDK5R1 / RFU, ZRANB3 / Fold change vs veh, ZRANB3 / RFU, CUL4A / Fold change vs veh, CUL4A / RFU, CCNY / Fold change vs veh, CCNY / RFU, UFL1 / Fold change vs veh, UFL1 / RFU, COG3 / Fold change vs veh, COG3 / RFU, DIAPH2 / Fold change vs veh, DIAPH2 / RFU, SKA2 / Fold change vs veh, SKA2 / RFU, AFF3 / Fold change vs veh, AFF3 / RFU, LMF1 / Fold change vs veh, LMF1 / RFU, IPO11 / Fold change vs veh, IPO11 / RFU, DFFB / Fold change vs veh, DFFB / RFU, FOXP1 / Fold change vs veh, FOXP1 / RFU, CARD8 / Fold change vs veh, CARD8 / RFU, STRN3 / Fold change vs veh, STRN3 / RFU, ADK / Fold change vs veh, ADK / RFU, RASSF2 / Fold change vs veh, RASSF2 / RFU, WIPF1 / Fold change vs veh, WIPF1 / RFU, LARP1B / Fold change vs veh, LARP1B / RFU, RASA1 / Fold change vs veh, RASA1 / RFU, RB1 / Fold change vs veh, RB1 / RFU, PPFIA1 / Fold change vs veh, PPFIA1 / RFU, MAT2A / Fold change vs veh, MAT2A / RFU, CCT5 / Fold change vs veh, CCT5 / RFU, WDR92 / Fold change vs veh, WDR92 / RFU, CUX1 / Fold change vs veh, CUX1 / RFU, TTC7A / Fold change vs veh, TTC7A / RFU, TMEM135 / Fold change vs veh, TMEM135 / RFU, DEPTOR / Fold change vs veh, DEPTOR / RFU, CPM / Fold change vs veh, CPM / RFU, DNAJB6 / Fold change vs veh, DNAJB6 / RFU, CACNA2D3 / Fold change vs veh, CACNA2D3 / RFU, DTX4 / Fold change vs veh, DTX4 / RFU, TFCP2 / Fold change vs veh, TFCP2 / RFU, GMCL1 /// GMCL1P1 / Fold change vs veh, GMCL1 /// GMCL1P1 / RFU, AEBP2 / Fold change vs veh, AEBP2 / RFU, SNHG1 /// SNORD22 /// SNORD25 /// SNORD26 /// SNORD27 /// SNORD28 /// SNORD29 /// SNORD31 / Fold change vs veh, SNHG1 /// SNORD22 /// SNORD25 /// SNORD26 /// SNORD27 /// SNORD28 /// SNORD29 /// SNORD31 / Fold change (Aza/veh), C12orf56 (ProbeSet 11735607_a_at) / Fold change (ACY-1035/veh), C12orf56 (ProbeSet 11735607_a_at) / Fold change (Aza/veh), FGFR1OP (ProbeSet 11751329_s_at) / Fold change (ACY-1035/veh), FGFR1OP (ProbeSet 11751329_s_at) / Fold change (Aza/veh), VPS36 (ProbeSet 11739960_a_at) / Fold change (ACY-1035/veh), VPS36 (ProbeSet 11739960_a_at) / RFU SYPL1 (11715823_x_at) / Fold change /veh SYPL1 (11715823_x_at) / RFU IGFBP7 (11715501_s_at) / Fold change /veh IGFBP7 (11715501_s_at) / RFU REEP3 (11722064_at) / Fold change /veh REEP3 (11722064_at) / RFU IGLL1 (11728026_x_at) / Fold change /veh IGLL1 (11728026_x_at): dose or concentration left out as unconfirmed
Conditions: MV-4-11 cells, 48 hours

Nc1ccc(-c2cccs2)cc1NC(=O)c1ccc2c(c1)cc(C1CC1)n2CCN1CCOCC1 [ACY-1035]
Fold change /veh A4GNT (11735810_at): 1.01

Reference: publication PMC5218480 (PLoS ONE, 2017)
